Read-outs that look alike come from different tables or passages of the source.
How the values were obtained:
[1] = tested on: MDA-MB-231/ATCC; test: NCI-60 anticancer screen (SRB; single dose and five doses); details: Homo sapiens
[2] = tested on: CAKI-1; test: as above; details: Homo sapiens
[3] = tested on: UACC-62; test: as above; details: Homo sapiens
[4] = tested on: MDA-MB-468; test: as above; format: cell-based, human
In short: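 NCI panel of about 60 human tumor cell lines treated with compound at a single concentration (10μM) for 48 h. Growth measured by SRB protein staining and expressed as percent growth of treated versus untreated control cells.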

[5] = tested on: MOLT-4; test: as above; details: Homo sapiens
[6] = tested on: MCF7; test: as above; details: Homo sapiens
[7] = tested on: SW-620; test: as above; details: Homo sapiens
[8] = tested on: U251; test: as above; details: Homo sapiens
[9] = tested on: HS 578T; test: as above; details: Homo sapiens
[10] = tested on: SK-MEL-5; test: as above; details: Homo sapiens
[11] = tested on: UACC-257; test: as above; details: Homo sapiens
[12] = tested on: 60 human tumor cell lines panel; test: NCI-60 anticancer screen, whole panel (means and ranges over the cell lines); format: cell-based; details: for activity at 10 µM: Homo sapiens, 48 h, dose of 10 μM
[13] = tested on: HL-60(TB); test: NCI-60 anticancer screen (SRB; single dose and five doses); details: Homo sapiens
[14] = tested on: SK-MEL-2; test: as above; details: Homo sapiens
[15] = tested on: UO-31; test: as above; details: Homo sapiens
[16] = tested on: RXF 393; test: as above; details: Homo sapiens
[17] = tested on: OVCAR-8; test: as above; details: Homo sapiens
[18] = tested on: NCI-H522; test: as above; details: Homo sapiens
[19] = tested on: SK-OV-3; test: as above; details: Homo sapiens
[20] = tested on: IGROV1; test: as above; details: Homo sapiens
[21] = tested on: SNB-19; test: cells; details: Homo sapiens
[22] = tested on: SF-539; test: NCI-60 anticancer screen (SRB; single dose and five doses); details: Homo sapiens
[23] = tested on: MALME-3M; test: as above; details: Homo sapiens
[24] = tested on: M14; test: as above; details: Homo sapiens
[25] = tested on: SF-268; test: as above; details: Homo sapiens
[26] = five doses, mean graph midpoint over all cell lines

Cc1[nH]c(=S)sc1C(=O)/C=C/c1ccc(Cl)cc1 [2f, (E)-3-(4-Chlorophenyl)-1-(4-Methyl-2-Thioxo-2,3-Dihydrothiazol-5-yl)Prop-2-En-1-One]
GI50 ([1]; MDA-MB-231): 16.2 µM
IC50 ([1]; MDA-MB-231): 30.9 µM
activity at 10 µM ([1]; MDA-MB-231, 48 h, read-out: Growth Percentage): 39.3%
CC50 ([1]; MDA-MB-231, read-out: LC50): 61.7 µM
IC (TGI) ([1]; MDA-MB-231, read-out: TGI): 31.6 µM
GI50 ([2]; CAKI-1): 4.47 µM
IC50 ([2]; CAKI-1): 8.71 µM
activity at 10 µM ([2]; CAKI-1, 48 h, read-out: Growth Percentage): 53.2%
CC50 ([2]; CAKI-1, read-out: LC50): 43.6 µM
IC (TGI) ([2]; CAKI-1, read-out: TGI): 17.4 µM
GI50 ([3]; UACC-62): 9.77 µM
IC50 ([3]; UACC-62): 17 µM
activity at 10 µM ([3]; UACC-62, 48 h, read-out: Growth Percentage): 33.9%
IC (TGI) ([3]; UACC-62, read-out: TGI): 22.4 µM
activity at 10 µM ([4]; Homo sapiens, 48 h, MDA-MB-468, dose of 10 μM, read-out: Growth Percentage): -21.2%
IC50 ([4]; Homo sapiens, MDA-MB-468, MDA-MB-468, Breast Cancer, five dose): 12 µM
IC50 ([4]; Homo sapiens, MDA-MB-468, MDA-MB-468, five doses): 2.51 µM
GI50 ([4]; Homo sapiens, MDA-MB-468, Breast Cancer, five dose): 2.51 µM
CC50 ([4]; Homo sapiens, MDA-MB-468, Breast Cancer, five dose, read-out: LC50 (the source's name)): 30.2 µM
TGI ([4]; MDA-MB-468, Breast Cancer, five dose): 8.32 µM
GI50 ([5]; MOLT-4): 14.5 µM
IC50 ([5]; MOLT-4): 24.6 µM
activity at 10 µM ([5]; MOLT-4, 48 h, read-out: Growth Percentage): 10.2%
CC50 ([5]; MOLT-4, read-out: LC50): > 100 µM
IC (TGI) ([5]; MOLT-4, read-out: TGI): 79.4 µM
GI50 ([6]; MCF7): 3.16 µM
IC50 ([6]; MCF7): 4.68 µM
activity at 10 µM ([6]; MCF7, 48 h, read-out: Growth Percentage): 4.86%
CC50 ([6]; MCF7, read-out: LC50): 43.6 µM
IC (TGI) ([6]; MCF7, read-out: TGI): 13.2 µM
GI50 ([7]; SW-620): 3.09 µM
IC50 ([7]; SW-620): 4.37 µM
activity at 10 µM ([7]; SW-620, 48 h, read-out: Growth Percentage): 8.02%
CC50 ([7]; SW-620, read-out: LC50): 38.9 µM
IC (TGI) ([7]; SW-620, read-out: TGI): 11.2 µM
GI50 ([8]; U-251): 3.39 µM
IC50 ([8]; U-251): 4.79 µM
activity at 10 µM ([8]; U-251, 48 h, read-out: Growth Percentage): 11.3%
CC50 ([8]; U-251, read-out: LC50): 40.7 µM
IC (TGI) ([8]; U-251, read-out: TGI): 13.2 µM
GI50 [9]: 21.4 µM
IC50 [9]: > 100 µM
activity at 10 µM ([9]; 48 h, read-out: Growth Percentage): 48%
CC50 ([9]; read-out: LC50): > 100 µM
IC (TGI) ([9]; read-out: TGI): 77.6 µM
GI50 ([10]; SK-MEL-5): 11.2 µM
IC50 ([10]; SK-MEL-5): 20.4 µM
activity at 10 µM ([10]; SK-MEL-5, 48 h, read-out: Growth Percentage): 28%
CC50 ([10]; SK-MEL-5, read-out: LC50): 49 µM
IC (TGI) ([10]; SK-MEL-5, read-out: TGI): 23.4 µM
GI50 ([11]; UACC-257): 13.8 µM
IC50 ([11]; UACC-257): 26.9 µM
activity at 10 µM ([11]; UACC-257, 48 h, read-out: Growth Percentage): 66.8%
CC50 ([11]; UACC-257, read-out: LC50): 56.2 µM
IC (TGI) ([11]; UACC-257, read-out: TGI): 27.5 µM
activity at 10 µM ([12]; mean over the tested cell lines, read-out: Mean growth percentage): 23.7%
activity at 10 µM ([12]; range over the cell lines, read-out: growth percentages against most of the tested cells (lowest to highest)): -48.1 to 106%
Log10GI50 _MID [12, 26]: -5.13 Molar
Log10LC50 _MID [12, 26]: -4.23 Molar
Log10TGI _MID [12, 26]: -4.63 Molar
GI50 ([13]; HL-60): 3.55 µM
IC50 ([13]; HL-60): 5.89 µM
activity at 10 µM ([13]; HL-60, 48 h, read-out: Growth Percentage): -0.98%
CC50 ([13]; HL-60, read-out: LC50): > 100 µM
IC (TGI) ([13]; HL-60, read-out: TGI): 38 µM
GI50 ([14]; SK-MEL-2): 13.8 µM
IC50 ([14]; SK-MEL-2): 27.5 µM
activity at 10 µM ([14]; SK-MEL-2, 48 h, read-out: Growth Percentage): 58.4%
CC50 ([14]; SK-MEL-2, read-out: LC50): 56.2 µM
IC (TGI) ([14]; SK-MEL-2, read-out: TGI): 28.2 µM
GI50 ([15]; UO-31): 4.07 µM
IC50 ([15]; UO-31): 11.2 µM
activity at 10 µM ([15]; UO-31, 48 h, read-out: Growth Percentage): 30.4%
IC (TGI) ([15]; UO-31, read-out: TGI): 18.2 µM
GI50 ([16]; RXF 393): 5.89 µM
IC50 ([16]; RXF 393): 24 µM
activity at 10 µM ([16]; RXF 393, 48 h, read-out: Growth Percentage): 9.78%
CC50 ([16]; RXF 393, read-out: LC50): 49 µM
IC (TGI) ([16]; RXF 393, read-out: TGI): 19.9 µM
GI50 ([17]; OVCAR-8): 8.51 µM
IC50 ([17]; OVCAR-8): 14.5 µM
activity at 10 µM ([17]; OVCAR-8, 48 h, read-out: Growth Percentage): 4.96%
CC50 ([17]; OVCAR-8, read-out: LC50): 55 µM
IC (TGI) ([17]; OVCAR-8, read-out: TGI): 22.9 µM
GI50 ([18]; NCI-H522): 11.8 µM
IC50 ([18]; NCI-H522): 22.4 µM
activity at 10 µM ([18]; NCI-H522, 48 h, read-out: Growth Percentage): 13.5%
CC50 ([18]; NCI-H522, read-out: LC50): 52.5 µM
IC (TGI) ([18]; NCI-H522, read-out: TGI): 25.1 µM
GI50 ([19]; SK-OV-3): 15.8 µM
IC50 ([19]; SK-OV-3): 30.2 µM
activity at 10 µM ([19]; SK-OV-3, 48 h, read-out: Growth Percentage): 60.8%
CC50 ([19]; SK-OV-3, read-out: LC50): 66.1 µM
IC (TGI) ([19]; SK-OV-3, read-out: TGI): 32.4 µM
GI50 ([20]; IGROV-1): 13.2 µM
IC50 ([20]; IGROV-1): 25.7 µM
CC50 ([20]; IGROV-1, read-out: LC50): 93.3 µM
IC (TGI) ([20]; IGROV-1, read-out: TGI): 34.7 µM
GI50 ([21]; SNB-19): 12 µM
IC50 ([21]; SNB-19): 22.4 µM
activity at 10 µM ([21]; SNB-19, 48 h, read-out: Growth Percentage): 15.8%
CC50 ([21]; SNB-19, read-out: LC50): 50.1 µM
IC (TGI) ([21]; SNB-19, read-out: TGI): 24.6 µM
GI50 ([22]; SF-539): 6.92 µM
IC50 ([22]; SF-539): 16.2 µM
activity at 10 µM ([22]; SF-539, 48 h, read-out: Growth Percentage): -30.4%
IC (TGI) ([22]; SF-539, read-out: TGI): 20.4 µM
GI50 [23]: 14.5 µM
IC50 [23]: 30.9 µM
CC50 ([23]; read-out: LC50): 75.9 µM
IC (TGI) ([23]; read-out: TGI): 33.1 µM
GI50 ([24]; M14): 14.1 µM
IC50 ([24]; M14): 24.6 µM
activity at 10 µM ([24]; M14, 48 h, read-out: Growth Percentage): 34.4%
IC (TGI) ([24]; M14, read-out: TGI): 32.4 µM
GI50 ([25]; SF-268): 12 µM
IC50 ([25]; SF-268): 24.6 µM
activity at 10 µM ([25]; SF-268, 48 h, read-out: Growth Percentage): 67.9%
CC50 ([25]; SF-268, read-out: LC50): 64.6 µM
IC (TGI) ([25]; SF-268, read-out: TGI): 28.2 µM

Source: paper PMC11435058, “Synthesis of New Thiazole-Privileged Chalcones as Tubulin Polymerization Inhibitors with Potential Anticancer Activities” (Pharmaceuticals, 2024)
